Source: ChEMBL document CHEMBL1141341, “Minor sesquiterpene lactones from Centaurea pullata and their antimicrobial activity” (2007)
Converted amounts (≈) assume the structure as drawn.

Assays:
Fusarium tricinctum = assay: Antifungal activity against Fusarium tricinctum CBS 514478 by microdilution technique; type: functional
Micrococcus luteus = assay: Antibacterial activity against Micrococcus flavus ATCC 10240 by microdilution technique; type: functional
Bacillus subtilis = assay: Antibacterial activity against Bacillus subtilis ATCC 10907 by microdilution technique; type: functional
Pseudomonas tolaasii = assay: Antibacterial activity against Pseudomonas tolaasii by microdilution technique; type: functional
[1] = system: Staphylococcus epidermidis; assay: Antibacterial activity against Staphylococcus epidermidis ATCC 12228 by microdilution technique; type: functional
Salmonella enteritidis = assay: Antibacterial activity against Salmonella enteritidis by microdilution technique; type: functional, Salmonella enterica subsp. enterica serovar Enteritidis; details: Salmonella enterica
Escherichia coli = assay: Antibacterial activity against Escherichia coli ATCC 35210 by microdilution technique; type: functional
Aspergillus flavus = assay: Antifungal activity against Aspergillus flavus ATCC 9643 by microdilution technique; type: functional
Aspergillus niger = assay: Antifungal activity against Aspergillus niger ATCC 6275 by microdilution technique; type: functional
Aspergillus ochraceus = assay: Antifungal activity against Aspergillus ochraceus ATCC 12066 by microdilution technique; type: functional
Talaromyces funiculosus = assay: Antifungal activity against Penicillium funiculosum ATCC 36839 by microdilution technique; type: functional
Penicillium ochrochloron = assay: Antifungal activity against Penicillium ochrochloron ATCC 9112 by microdilution technique; type: functional
Trichoderma viride = assay: Antifungal activity against Trichoderma viride IAM 5061 by microdilution technique; type: functional
Alternaria alternata = assay: Antifungal activity against Alternaria alternata DSM 2006 by microdilution technique; type: functional

| Structure (SMILES) | MFC (Fusarium tricinctum) [µg/mL] | MIC (Fusarium tricinctum) [µg/mL] | MBC (Micrococcus luteus) [µg/mL] | MIC (Micrococcus luteus) [µg/mL] | MBC (Bacillus subtilis) [µg/mL] | MIC (Bacillus subtilis) [µg/mL] | MBC (Pseudomonas tolaasii) [µg/mL] | MIC (Pseudomonas tolaasii) [µg/mL] | MBC [1] [µg/mL] | MIC [1] [µg/mL] | MBC (Salmonella enteritidis) [µg/mL] | MIC (Salmonella enteritidis) [µg/mL] | MBC (Escherichia coli) [µg/mL] | MIC (Escherichia coli) [µg/mL] | MFC (Aspergillus flavus) [µg/mL] | MIC (Aspergillus flavus) [µg/mL] | MFC (Aspergillus niger) [µg/mL] | MIC (Aspergillus niger) [µg/mL] | MFC (Aspergillus ochraceus) [µg/mL] | MIC (Aspergillus ochraceus) [µg/mL] | also measured |
| --- | --- | --- | --- | --- | --- | --- | --- | --- | --- | --- | --- | --- | --- | --- | --- | --- | --- | --- | --- | --- | --- |
| C=C(C(=O)O[C@H]1C/C(C)=C/CC/C(CO)=C/[C@H]2OC(=O)[C@H](C)[C@H]12)C(O)CO (stereo partly drawn) | 0.2 (≈ 0.526 µM) | 0.1 (≈ 0.263 µM) | 0.3 (≈ 0.789 µM) | 0.2 (≈ 0.526 µM) | 0.2 (≈ 0.526 µM) | 0.2 (≈ 0.526 µM) | 0.3 (≈ 0.789 µM) | 0.2 (≈ 0.526 µM) | 0.4 (≈ 1.05 µM) | 0.4 (≈ 1.05 µM) | 0.3 (≈ 0.789 µM) | 0.3 (≈ 0.789 µM) | 0.3 (≈ 0.789 µM) | 0.2 (≈ 0.526 µM) | 0.2 (≈ 0.526 µM) | 0.1 (≈ 0.263 µM) | 0.3 (≈ 0.789 µM) | 0.2 (≈ 0.526 µM) | 0.2 (≈ 0.526 µM) | 0.1 (≈ 0.263 µM) | MFC (Talaromyces funiculosus): 0.3 µg/mL (≈ 0.789 µM); MIC (Talaromyces funiculosus): 0.2 µg/mL (≈ 0.526 µM); MFC (Penicillium ochrochloron): 0.2 µg/mL (≈ 0.526 µM); MIC (Penicillium ochrochloron): 0.1 µg/mL (≈ 0.263 µM); MFC (Trichoderma viride): 0.3 µg/mL (≈ 0.789 µM); MIC (Trichoderma viride): 0.2 µg/mL (≈ 0.526 µM); MFC (Alternaria alternata): 0.2 µg/mL (≈ 0.526 µM); MIC (Alternaria alternata): 0.1 µg/mL (≈ 0.263 µM) |
| CC(=O)OC/C=C(/CO)C(=O)O[C@H]1C/C(C)=C/CC/C(CO)=C/[C@H]2OC(=O)[C@H](C)[C@H]12 | 0.3 (≈ 0.71 µM) | 0.2 (≈ 0.473 µM) | 0.3 (≈ 0.71 µM) | 0.2 (≈ 0.473 µM) | 0.3 (≈ 0.71 µM) | 0.2 (≈ 0.473 µM) | 0.3 (≈ 0.71 µM) | 0.2 (≈ 0.473 µM) | 0.5 (≈ 1.18 µM) | 0.4 (≈ 0.947 µM) | 0.3 (≈ 0.71 µM) | 0.3 (≈ 0.71 µM) | 0.3 (≈ 0.71 µM) | 0.3 (≈ 0.71 µM) | 0.2 (≈ 0.473 µM) | 0.2 (≈ 0.473 µM) | 0.3 (≈ 0.71 µM) | 0.2 (≈ 0.473 µM) | 0.2 (≈ 0.473 µM) | 0.1 (≈ 0.237 µM) | MFC (Talaromyces funiculosus): 0.3 µg/mL (≈ 0.71 µM); MIC (Talaromyces funiculosus): 0.2 µg/mL (≈ 0.473 µM); MFC (Penicillium ochrochloron): 0.2 µg/mL (≈ 0.473 µM); MIC (Penicillium ochrochloron): 0.1 µg/mL (≈ 0.237 µM); MFC (Trichoderma viride): 0.3 µg/mL (≈ 0.71 µM); MIC (Trichoderma viride): 0.2 µg/mL (≈ 0.473 µM); MFC (Alternaria alternata): 0.3 µg/mL (≈ 0.71 µM); MIC (Alternaria alternata): 0.2 µg/mL (≈ 0.473 µM) |
| C=C(CCO)C(=O)O[C@H]1C[C@]2(C)C([C@H](C=O)CC[C@H]2O)[C@H]2OC(=O)[C@H](C)[C@H]12 (stereo partly drawn) | 0.3 (≈ 0.789 µM) | 0.2 (≈ 0.526 µM) | 0.3 (≈ 0.789 µM) | 0.2 (≈ 0.526 µM) | 0.3 (≈ 0.789 µM) | 0.2 (≈ 0.526 µM) | 0.5 (≈ 1.31 µM) | 0.4 (≈ 1.05 µM) | 0.5 (≈ 1.31 µM) | 0.4 (≈ 1.05 µM) | 0.4 (≈ 1.05 µM) | 0.4 (≈ 1.05 µM) | 0.4 (≈ 1.05 µM) | 0.4 (≈ 1.05 µM) | 0.3 (≈ 0.789 µM) | 0.2 (≈ 0.526 µM) | 0.3 (≈ 0.789 µM) | 0.2 (≈ 0.526 µM) | 0.3 (≈ 0.789 µM) | 0.2 (≈ 0.526 µM) | MFC (Talaromyces funiculosus): 0.4 µg/mL (≈ 1.05 µM); MIC (Talaromyces funiculosus): 0.3 µg/mL (≈ 0.789 µM); MFC (Penicillium ochrochloron): 0.4 µg/mL (≈ 1.05 µM); MIC (Penicillium ochrochloron): 0.3 µg/mL (≈ 0.789 µM); MFC (Trichoderma viride): 0.4 µg/mL (≈ 1.05 µM); MIC (Trichoderma viride): 0.3 µg/mL (≈ 0.789 µM); MFC (Alternaria alternata): 0.3 µg/mL (≈ 0.789 µM); MIC (Alternaria alternata): 0.2 µg/mL (≈ 0.526 µM) |
| C=C(CCO)C(=O)O[C@H]1C/C(C)=C/CC/C(CO)=C/[C@H]2OC(=O)[C@H](C)[C@H]12 | 0.3 (≈ 0.823 µM) | 0.2 (≈ 0.549 µM) | 0.3 (≈ 0.823 µM) | 0.2 (≈ 0.549 µM) | 0.2 (≈ 0.549 µM) | 0.2 (≈ 0.549 µM) | 0.3 (≈ 0.823 µM) | 0.3 (≈ 0.823 µM) | 0.4 (≈ 1.1 µM) | 0.4 (≈ 1.1 µM) | 0.3 (≈ 0.823 µM) | 0.3 (≈ 0.823 µM) | 0.2 (≈ 0.549 µM) | 0.2 (≈ 0.549 µM) | 0.2 (≈ 0.549 µM) | 0.1 (≈ 0.274 µM) | 0.3 (≈ 0.823 µM) | 0.2 (≈ 0.549 µM) | 0.2 (≈ 0.549 µM) | 0.1 (≈ 0.274 µM) | MFC (Talaromyces funiculosus): 0.3 µg/mL (≈ 0.823 µM); MIC (Talaromyces funiculosus): 0.2 µg/mL (≈ 0.549 µM); MFC (Penicillium ochrochloron): 0.2 µg/mL (≈ 0.549 µM); MIC (Penicillium ochrochloron): 0.1 µg/mL (≈ 0.274 µM); MFC (Trichoderma viride): 0.3 µg/mL (≈ 0.823 µM); MIC (Trichoderma viride): 0.2 µg/mL (≈ 0.549 µM); MFC (Alternaria alternata): 0.3 µg/mL (≈ 0.823 µM); MIC (Alternaria alternata): 0.2 µg/mL (≈ 0.549 µM) |
| C=C(CCO)C(=O)O[C@H]1C[C@]2(C)C([C@H]3OC(=O)[C@H](C)[C@H]13)[C@@H](C=O)CC[C@H]2O (stereo partly drawn) | 0.3 (≈ 0.789 µM) | 0.2 (≈ 0.526 µM) | 0.3 (≈ 0.789 µM) | 0.2 (≈ 0.526 µM) | 0.3 (≈ 0.789 µM) | 0.2 (≈ 0.526 µM) | 0.3 (≈ 0.789 µM) | 0.2 (≈ 0.526 µM) | 0.5 (≈ 1.31 µM) | 0.4 (≈ 1.05 µM) | 0.4 (≈ 1.05 µM) | 0.4 (≈ 1.05 µM) | 0.4 (≈ 1.05 µM) | 0.4 (≈ 1.05 µM) | 0.3 (≈ 0.789 µM) | 0.2 (≈ 0.526 µM) | 0.3 (≈ 0.789 µM) | 0.2 (≈ 0.526 µM) | 0.3 (≈ 0.789 µM) | 0.2 (≈ 0.526 µM) | MFC (Talaromyces funiculosus): 0.4 µg/mL (≈ 1.05 µM); MIC (Talaromyces funiculosus): 0.3 µg/mL (≈ 0.789 µM); MFC (Penicillium ochrochloron): 0.4 µg/mL (≈ 1.05 µM); MIC (Penicillium ochrochloron): 0.3 µg/mL (≈ 0.789 µM); MFC (Trichoderma viride): 0.5 µg/mL (≈ 1.31 µM); MIC (Trichoderma viride): 0.4 µg/mL (≈ 1.05 µM); MFC (Alternaria alternata): 0.3 µg/mL (≈ 0.789 µM); MIC (Alternaria alternata): 0.2 µg/mL (≈ 0.526 µM) |
| CN[C@@H]1[C@H](O[C@H]2[C@H](O[C@H]3[C@H](O)[C@@H](O)[C@H](N=C(N)N)[C@@H](O)[C@@H]3N=C(N)N)O[C@@H](C)[C@]2(O)C=O)O[C@@H](CO)[C@H](O)[C@H]1O (stereo in doubt) [STREPTOMYCIN] | – | – | 1 (≈ 1.72 µM) | 0.5 (≈ 0.86 µM) | 0.5 (≈ 0.86 µM) | 0.5 (≈ 0.86 µM) | 2 (≈ 3.44 µM) | 1 (≈ 1.72 µM) | 1 (≈ 1.72 µM) | 1 (≈ 1.72 µM) | 1 (≈ 1.72 µM) | 1 (≈ 1.72 µM) | 1 (≈ 1.72 µM) | 0.5 (≈ 0.86 µM) | – | – | – | – | – | – | – |
| Clc1ccc(COC(Cn2ccnc2)c2ccc(Cl)cc2Cl)c(Cl)c1 (stereo not drawn) [MICONAZOLE] | 1 (≈ 2.4 µM) | 0.2 (≈ 0.481 µM) | – | – | – | – | – | – | – | – | – | – | – | – | 2 (≈ 4.81 µM) | 0.5 (≈ 1.2 µM) | 4 (≈ 9.61 µM) | 1.5 (≈ 3.6 µM) | 4 (≈ 9.61 µM) | 1.5 (≈ 3.6 µM) | MFC (Talaromyces funiculosus): 5 µg/mL (≈ 12 µM); MIC (Talaromyces funiculosus): 2 µg/mL (≈ 4.81 µM); MFC (Penicillium ochrochloron): 5 µg/mL (≈ 12 µM); MIC (Penicillium ochrochloron): 2 µg/mL (≈ 4.81 µM); MFC (Trichoderma viride): 2 µg/mL (≈ 4.81 µM); MIC (Trichoderma viride): 2 µg/mL (≈ 4.81 µM); MFC (Alternaria alternata): 1 µg/mL (≈ 2.4 µM); MIC (Alternaria alternata): 0.2 µg/mL (≈ 0.481 µM) |
